Assay [1] deals with T1, panel of 442 kinases (Homo sapiens, UniProt O14936).
T1 construct: purchased KINOMEscan
T1 sequence (O14936 1-926): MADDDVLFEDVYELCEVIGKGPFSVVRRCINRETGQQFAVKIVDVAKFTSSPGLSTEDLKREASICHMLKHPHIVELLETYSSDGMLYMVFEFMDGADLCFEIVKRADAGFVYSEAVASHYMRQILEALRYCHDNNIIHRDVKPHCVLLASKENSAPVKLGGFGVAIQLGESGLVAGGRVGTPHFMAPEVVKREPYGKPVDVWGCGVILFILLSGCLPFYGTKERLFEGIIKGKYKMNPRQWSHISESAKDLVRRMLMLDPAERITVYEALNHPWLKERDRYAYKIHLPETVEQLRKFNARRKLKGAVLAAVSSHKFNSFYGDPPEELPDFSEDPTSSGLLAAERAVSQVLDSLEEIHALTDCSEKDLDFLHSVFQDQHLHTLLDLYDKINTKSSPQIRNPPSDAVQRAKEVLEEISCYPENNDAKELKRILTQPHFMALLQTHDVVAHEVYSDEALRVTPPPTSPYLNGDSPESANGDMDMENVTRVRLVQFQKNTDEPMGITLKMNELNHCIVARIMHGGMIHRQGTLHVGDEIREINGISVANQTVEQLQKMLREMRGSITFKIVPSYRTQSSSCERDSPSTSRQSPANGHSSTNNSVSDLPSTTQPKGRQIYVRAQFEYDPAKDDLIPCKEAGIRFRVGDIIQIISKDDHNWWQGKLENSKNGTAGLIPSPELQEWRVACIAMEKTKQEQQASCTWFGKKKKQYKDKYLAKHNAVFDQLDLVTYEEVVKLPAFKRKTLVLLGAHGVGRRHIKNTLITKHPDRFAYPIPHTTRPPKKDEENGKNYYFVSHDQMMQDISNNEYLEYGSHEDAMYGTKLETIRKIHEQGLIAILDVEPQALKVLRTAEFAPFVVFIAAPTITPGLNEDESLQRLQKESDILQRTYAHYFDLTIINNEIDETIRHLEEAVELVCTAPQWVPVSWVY
Type of assay: binding. As to conditions: Compound Concentration 10 µM. The source says: (§1) We assessed the selectivity of members of this scaffold using the KINOMEscan methodology across a near comprehensive panel of 442 kinases [[18,27]].

In assay [2] the target is T2, panel of 442 kinases (Homo sapiens, UniProt Q8NE63).
T2 construct: purchased KINOMEscan
T2 sequence (Q8NE63 1-616): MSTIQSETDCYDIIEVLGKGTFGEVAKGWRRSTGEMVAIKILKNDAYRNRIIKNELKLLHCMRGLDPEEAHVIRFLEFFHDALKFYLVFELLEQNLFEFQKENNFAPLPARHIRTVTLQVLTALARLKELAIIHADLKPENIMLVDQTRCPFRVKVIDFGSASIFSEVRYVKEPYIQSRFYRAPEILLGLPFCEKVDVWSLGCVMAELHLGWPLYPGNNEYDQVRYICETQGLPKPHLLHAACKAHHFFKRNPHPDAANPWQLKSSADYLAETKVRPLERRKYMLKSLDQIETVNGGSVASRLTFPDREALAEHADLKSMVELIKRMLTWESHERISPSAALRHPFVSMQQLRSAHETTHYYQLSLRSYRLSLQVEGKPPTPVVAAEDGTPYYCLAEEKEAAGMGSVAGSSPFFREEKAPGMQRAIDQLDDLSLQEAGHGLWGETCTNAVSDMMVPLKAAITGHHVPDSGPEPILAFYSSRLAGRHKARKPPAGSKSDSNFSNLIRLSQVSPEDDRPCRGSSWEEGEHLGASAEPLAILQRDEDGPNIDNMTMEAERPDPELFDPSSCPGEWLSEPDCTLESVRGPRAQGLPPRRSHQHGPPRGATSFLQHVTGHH
The assay is classed as binding. As to conditions: Compound Concentration 10 µM.
Excerpt: as §1

SMILES strings stand for the structures.

On to `COc1cc(C(=O)N2CCC(N3CCN(C)CC3)CC2)ccc1Nc1ncc2c(n1)N(C)c1ccccc1C(=O)N2C` [15 (LRRK2-IN-1)], for which, in assay [1], the “KINOMEscan: CASK” value stood at 85. For the same compound, the “KINOMEscan: HIPK4” value in assay [2] turned out to be 100.
Take `COc1cc(C(=O)N2CCC(N3CCN(C)CC3)CC2)ccc1Nc1ncc2c(n1)N1CCc3cccc(c31)C(=O)N2C` [Compound 24]: in assay [1], the “KINOMEscan: CASK” value is 100. Besides, the “KINOMEscan: HIPK4” value in assay [2] amounted to 50.
Consider `COc1cc(C(=O)N2CCC(N3CCN(C)CC3)CC2)ccc1Nc1ncc2c(n1)N(C1CCCC1)c1ccccc1C(=O)N2C` [Compound 25, 11-cyclopentyl-2-((2-methoxy-4-(4-(4-methylpiperazin-1-yl)piperidine-1-carbonyl)phenyl)amino)-5-methyl-5H-benzo[e]pyrimido[5,4-b][1,4]diazepin-6(11H)-one], for which, in assay [1], the “KINOMEscan: CASK” value was 100. For the same compound, in assay [2], the “KINOMEscan: HIPK4” value is recorded as 87.
As for `CCOc1cc(C(=O)N2CCC(N3CCN(C)CC3)CC2)ccc1Nc1ncc2c(n1)N(C1CCCC1)c1ccccc1C(=O)N2C` [Compound 26], in assay [1], the “KINOMEscan: CASK” value stood at 98. For the same compound, in assay [2], the “KINOMEscan: HIPK4” value was 100.

(Values after publication PMC3914206.)
